Patent US20240166702A1, “COMPOSITIONS AND METHODS FOR TREATING BREAST CANCER” (Arizona Board of Regents on Behalf of The University of …, priority 2021, published 2024)

Key:
MCF10A cells = assay type: cell-based
MDA-MB-468 cells = assay type: cell-based, human; settings: MDA-MB-468, 3 days, MTT assay
Experimental: A. Peptide sequence alignment of modified and stabilized peptides (−) indicates conserved residues, (/) indicates a deleted residue. Modified residues used for staples are (S)-2-(((9H-flouren-9-yl) methoxy) caronylamino)-2-methyl-hept-6-enoic acid (5) and (R)-2-(((9H-flouren-9-yl) methoxy) caronylamino)-2-methyl-dec-9-enoic acid (8). PTD4=Protein Transduction Domain. Ac=acetylation of 5′ end and NH2=amidation of 3′ end. B. MDA-MB-468 cells were treated with 10 μM of the indicated peptide for 3 days. Cell viability was measured using an MTT assay. Vehicle control represents 100%. C. A predicted peptide structure of SNX1.3 was generated using SWISSMODEL with negative (blue) and positive (red) residues highlighted.
(§1) B. MDA-MD-468 cells were transduced with an IPTG inducible shEGFR targeted against the 3′ UTR of EGFR. These cells were incubated with IPTG for the indicated number of days and lysates were generated to confirm knock down of EGFR. C. In tandem with B., cells were plated and incubated +/−IPTG for 2 days prior to drug treatment. […] After 5 days of IPTG and 3 days of peptide treatment viability was measured using an MTT assay.
Predicted peptide structure including negatively (blue) and positively (red) charged residues was used to guide the modifications (FIG. 2C).

BT20 cells [1] = assay type: cell-based, human
Experimental: as §1
To investigate rt-EGFR, the role of the Sorting Nexins to regulate EGFR trafficking to the lysosome for degradation was investigated. To determine if SNX1 domains could be therapeutically mimicked, three SNX1-based peptides were synthesized, each of which was generated in tandem with a Cell Penetrating Peptide domain (PTD-4) to allow for intracellular penetration^19 (SNX1.1, 1.2 and 1.3, FIG. 2A). The ability of each peptide to reduce cell survival in the triple negative breast cancer cell line BT20 was evaluated.
(§2) EGFR activity is known to promote the activity of other RTKs, including those in the EGFR family (HER2, HER3 and HER4) and the c-Met receptor (Puri and Salgia 2008; Linklater et al. 2016). Therefore, the ability of SNX1.3 to inhibit 2D migration was next evaluated, both in response to EGF as well as other migration-inducing ligands. […] Cells were plated on plastic and allowed to migrate into an artificial wound over 12 hours. […] To determine if this inhibitory effect was restricted to EGF-induced migration, the ability of SNX1.3 to impact neuregulin (NRG1) was also tested and hepatic growth factor (HGF)-induced migration. NRG is the ligand for HER3 and HER4, and HGF the ligand for the c-Met receptor, both of which are receptor tyrosine kinases. In addition, soluble hyaluronic acid (HA)-induced migration, the ligand for CD44, was also tested [a non-kinase membrane receptor that induces migration (Louderbough, Lopez, and Schroeder 2010)]. […] Note that all receptors undergo endocytosis, with the RTKs primarily undergoing clathrin-dependent endocytosis, while CD44 endocytosis is clathrin-independent (Dutta and Donaldson 2015).

BT20 cells [2] = assay: 2D cell migration into an artificial wound, BT20 cells; assay type: cell-based, human
Experimental: Area migrated was measured with ImageJ.
as §2

WAP-TGFα tumors [3] = assay: NanoString analysis of WAP-TGFα tumors (PanCancer IO 360 Panel); assay type: in vivo, mouse; settings: WAP-TGFα tumors, found by NanoString
Experimental: (§3) A. Tumors (n=6 each treatment) from WAP-TGF mice as described in FIG. 1 were embedded and analyzed by NanoString. […] C. Tumors were dissected, lysed, and analyzed for apoptosis by probing for cleaved PARP and PDL1 expression.
C. WAP-TGFα tumors treated with either SNX1.3 or cPTD4 were analyzed for NK cells using an anti-NKp46 antibody. Inset is 20×.
(§4) Due to the increased leukocyte infiltration identified by histology of cSNX1.3-treated WAP-TGFα mice, NanoString analysis was performed using a panel that identifies alterations in immune regulators through localized analysis of transcript expression (PanCancer IO 360 Panel). […] These include several immune/inflammatory genes (such as CD2, TLR, CD28, H2-M3, Ly6C1, cytokines, and chemokines) as well as genes that could impact the metastatic potential of the microenvironment (including collagen 11A1 and MM P12). NanoString bioinformatics analysis further identified that these changes could be due to an increase in Cytotoxic T lymphocytes (CTLs) in cSNX1.3-treated samples compared to PTD4 (FIG. 8B). […] Therefore, tumor lysates were prepared and evaluated for apoptosis and a loss of the negative immune checkpoint receptor PDL1 (FIG. 8C). […] These changes could indicate an alteration from an immune-suppressive to an immune-surveilling microenvironment.

WAP-TGFα tumors [4] = assay: Histology and protein lysate analysis of treated WAP-TGFα tumors; assay type: in vivo, mouse
Source text: Mice were bred continuously to induce transgene expression and palpated weekly for tumor formation. […] A. Changes in tumor size from entry into study until end of study are shown for each individual tumor, (*) indicate tumors that entered the study at size greater than 500 mm^3, all other tumors entered the study at ˜100 mm^3. B. a Kaplan-Meier survival curve was generated showing when mice were sacrificed by either reaching tumor burden (2000 mm^3) or the end of the study (p=0.0002). C. Upon sacrifice tumors were harvested and fixed in 10% formalin and embedded in paraffin. Slides were stained with hematoxylin and eosin and imaged at 20×. D. Protein lysates were generated from tumors upon sacrifice and probed for the indicated proteins.
as §3
At the end of the study, mice were sacrificed and tissues were collected and fixed in 10% buffered formalin or homogenized in tissue lysis buffer. Tissues were sectioned and evaluated for changes to tissue morphology in response to peptide treatment (FIG. 3C). […] Representative tumors from the PARP-cleavage positive (cSNX1.3-treated) and negative (cPTD4-treated) are shown (FIG. 3C).
as §4

Compound | impact on normal immortalized cells (MCF10A cells) | inhibition of cell survival, compared with Sapitinib (MDA-MB-468 cells) | inhibition of cell survival, compared with Sapitinib (BT20 cells [1]; BT20, 3 days, MTT assay) | soluble hyaluronic acid (HA)-induced migration (CD44) (BT20 cells [2]; BT20, 12 hours, ligand for CD44) | neuregulin (NRG1) induced migration (BT20 cells [2]; BT20, 12 hours, ligand for HER3 and HER4) | hepatic growth factor (HGF)-induced migration (BT20 cells [2]; BT20, 12 hours, ligand for c-Met receptor) | EGF induced migration (BT20 cells [2]; BT20 on plastic, 12 hours) | secretion of IL33 (WAP-TGFα tumors [3]) | infiltration of cytotoxic T lymphocytes and neutrophils in tumors (WAP-TGFα tumors [4]; compared to control mice) | overall PDL1 expression in tumors (WAP-TGFα tumors [4]; tumor lysates) | growth of BT20 cells (BT20 cells [1]; first screen of SNX1-based peptides) | impact on viability via MTT (BT20 cells [1]; in less than 24 hours, data not shown)
CNC(=O)CN1CCC(Oc2cc3c(Nc4cccc(Cl)c4F)ncnc3cc2OC)CC1 [Sapitinib, reference compound] | more effective at inhibiting cell growth in normal cells than in cancer cells | inhibited cell survival | inhibited cell survival |  |  |  |  |  |  |  |  | 
YARAAARQARAKNHVIKYLETLLYSQQQLAKYWEAFL [SNX1.3] |  |  |  | did not block | inhibited migration | inhibited migration | no migration was observed | induced | increased infiltration | decrease | inhibits the growth | no impact on viability
